# Laboratory results reported in US9783803B2, “Inhibition of NEAT1 for treatment of solid tumors” (VIB VZW, priority 2014, dated 2017).
# Entries after “also recorded” stand apart in the source; their conditions may differ.
# Columns and labels:
# NEAT1 [1] = test: NEAT1 induction under low/chronic or high stress conditions; assay type: cell-based, human
# Description: FIGS. 4A-4F. NEAT1 is induced in human and mouse cells exposed to low stress conditions including exposure to the inducer of senescence aurora-kinase inhibitor AZD1152-HQPA (AZD; FIG. 4A), low doses of Rotenone (Rot; FIG. 4B) that promotes oxidative stress, low doses of doxorubicin (Doxo, FIG. 4C) and replicative stress-induced damage (RS; FIG. 4D).
# It has been shown that p53 is induced in MEFs during passages as a response to increasing oxidative stress levels generated by culturing of the cells in normoxic conditions. […] This is in line with chronic stress caused by UV radiation.
# The same is true for cells that are exposed to high doses of irradiation (FIG. 4F).
# MCF-7 cells = test: Paraspeckles formation by NEAT1 RNA-FISH in Nutlin3a-treated MCF-7 cells; assay type: cell-based, human; details: for Nutlin-induced paraspeckles formation: MCF-7 following Nutlin exposure, gapmer transfection
# Description: FIGS. 3A and 3B. […] FIG. 3A: MCF-7 cells were exposed to Nutlin3a (for 24 hours) and paraspeckles formation (red dots) was assessed by FISH-analysis with a NEAT1-specific probe set. Nuclei were counter-stained with DAPI (Blue). FIG. 3B: Quantification of paraspeckles formation in MCF-7 cells exposed to Nutlin3a before (mock) and after transfection of the cells with a control/scramble gapmer (scr) or gapmers targeting the NEAT1 transcripts (gap4 and gap6).
# (§1) To differentiate between the different isoforms of NEAT, the following strategy was used. All qPCRs labeled NEAT1 or NEAT1_1 were done with primers targeting the region of +/−2200 bp. The knock-down probes labeled as such also target the region between 2000 and 3756 bp. The RNA-FISH probeset used is made up of a large set of oligos targeting region 1-3756 bp. The primers and knock-down probes labeled NEAT1_2 (the long transcript) target a region of +/−21300 bp. The RNA-FISH probes (again a set of oligos) target the portion from 3800-11700 bp to avoid detection of shorter isoforms.
# A similar observation in MCF-7 cells treated with p53 shRNA confirms again that this induction is p53-dependent (data not shown). Thus, p53 stimulates the formation of paraspeckles in these cells.
# NEAT1 [2] = test: NEAT1 induction by Nutlin3a (RNA-seq, qPCR) in human cell lines; assay type: cell-based
# Description: (§2) FIG. 1 provides evidence that NEAT1 is a direct p53 target gene in the breast cancer cell line MCF-7. RNA-seq and p53 ChIPseq experiments have been carried out in MCF-7 cells following exposure to the MDM2 antagonist Nutlin3a for 24 hours.
# (§3) This upregulation is mediated through the recruitment of p53 to the NEAT1 promoter as illustrated by the increase intensity of the p53-ChIP-seq peaks (green in FIG. 1).
# Both isoforms are affected, with the effect being stronger for the longer isoform (NEAT1_2).
# as §1
# NEAT1 promoter = test: p53 ChIP-seq in MCF-7 cells; assay type: cell-based, human; details: 24 hours
# Description: as §2, §3
# NEAT1 [3] = test: NEAT1 induction by Nutlin in mouse embryonic fibroblasts; assay type: cell-based; details: early passage (P3) MEFs
# Description: FIGS. 7A-7F. NEAT1 is required for primary cells immortalization. NEAT1 expression in induced in mouse embryonic fibroblasts (MEFs) upon Nutlin3a exposure (FIG. 7A) and replicative passaging on a 3T3 protocol (FIG. 7B).
# NEAT1 [4] = test: NEAT1 knock-down by LNA-gapmers (relative RNA levels, qPCR); assay type: cell-based, human; details: for NEAT1 expression (knock-down): gapmer transfection, cancer cell lines; for NEAT1 isoforms inhibited: long (NEAT1_2) versus short isoform
# Description: (§4) FIGS. 8A-8D. NEAT1 KD reduces the cell viability of human cancer cell lines. Gapmers 4 and 5 (gap 4 and 5) were used to knock-down the expression of all NEAT1 isoforms, and Gapmer 6 (gap 6) to specifically KD expression of the long isoform, in a series of cancer cell lines.
# FIGS. 9A-9C. Knock-down of NEAT1 impairs HR and NHEJ DNA repair (FIG. 9A) but not Alt-NHEJ or SSA (FIG. 9B). […] SCR: scrambled control. Blue bars, all NEAT1 isoforms. Green bars, long NEAT1 isoform.
# as §1
# (§5) To further extend the anti-oncogenic effects observed in NEAT1 KO mice, NEAT1 was inhibited in different cancer cells using LNA-gapmers.
# To confirm the hypothesis that NEAT1 inhibition interferes with DNA repair, U2OS cells were exposed to different concentrations of the DNA-damaging agent bleomycin. In NEAT1-inhibited cells, DNA damage (as measured by γH2AX intensity) is indeed increased (FIG. 9C, last three panels). Thus, DNA repair is severely impaired in NEAT1 KD cells.
# BJ = test: Paraspeckles formation in immortalized human diploid fibroblast cell line BJ; assay type: cell-based; details: BJ cells, LNA-gapmer transfection
# cancer cell lines [5] = test: Paraspeckles formation in cancer cell lines after gapmer transfection; assay type: cell-based, human
# Description: as §4, §5
# cancer cell lines [6] = test: Apoptosis, caspase 3/7 glow assay and FACS analysis; assay type: cell-based, human; details: gapmer transfection
# Description: as §4, §5
# MCF-7 = test: WST1-assay of cell growth / metabolic activity; assay type: cell-based, human; details: gapmer transfection
# Description: as §4, §5
molecule,measurement,setting,value
"CCN(CCO)CCCOc1ccc2c(Nc3cc(CC(=O)Nc4cccc(F)c4)[nH]n3)ncnc2c1 [AZD, AZD1152-HQPA]",NEAT1 induction,NEAT1 [1]; melanoma cells Mel 501 undergoing senescence,induced
C=C(C)[C@H]1Cc2c(ccc3c2O[C@@H]2COc4cc(OC)c(OC)cc4[C@@H]2C3=O)O1 [rotenone],NEAT1 induction,"NEAT1 [1]; BJ cells, oxidative stress",induced
COc1ccc(C2=N[C@@H](c3ccc(Cl)cc3)[C@@H](c3ccc(Cl)cc3)N2C(=O)N2CCNC(=O)C2)c(OC(C)C)c1 [Nutlin3a],paraspeckles formation,"MCF-7 cells; MCF-7 cells, Nutlin alone",induces paraspeckles formation
same,transcription of NEAT1 (RNA-seq),"NEAT1 [2]; MCF-7 cells, 24 hours",induces transcription of NEAT1
same,expression of NEAT1,"NEAT1 [2]; U2OS, A459, human ES cells, BJ",induces expression of NEAT1
same,NEAT1 induction,NEAT1 [2]; colorectal cancer cell line HCT116,NEAT1 induction in response to Nutlin can be seen
same,NEAT1 induction,NEAT1 [2]; isogenic p53 KO HCT116 cell line,not in an isogenic p53 KO HCT116 cell line
same,recruitment of p53 to the NEAT1 promoter (p53-ChIP peaks),NEAT1 promoter,p53 is directly recruited to the NEAT1 promoter
same,expression of NEAT1,NEAT1 [3],induces expression of NEAT1
COc1cccc2c1C(=O)c1c(O)c3c(c(O)c1C2=O)C[C@@](O)(C(=O)CO)C[C@@H]3O[C@H]1C[C@H](N)[C@H](O)[C@H](C)O1 [Doxorubicin],NEAT1 induction,NEAT1 [1]; higher dose (5 μM),not significantly
same,NEAT1 induction,NEAT1 [1]; low dose,induced
"NEAT1-Gapmer4: LNA-gapmer, SEQ ID NO: 2, GACGTAACAGAATT; inhibits both long and short isoform of NEAT1 (LNA gapmer, LNA positions and linkages not given here)",NEAT1 expression (knock-down),NEAT1 [4]; listed as gap 4,efficiently knockdown NEAT1; also recorded: robust decrease in NEAT1 expression
same,NEAT1 isoforms inhibited,NEAT1 [4],inhibit both the long and short isoform of NEAT1
same,Nutlin-induced paraspeckles formation,MCF-7 cells,dramatically attenuated
same,formation of paraspeckles,BJ,decrease the formation of paraspeckles
same,paraspeckles formation,cancer cell lines [5],robust decrease
same,"apoptosis (caspase 3/7 glow assay, FACS analysis)",cancer cell lines [6],induction of apoptosis
same,MCF-7 growth (WST1-assay),MCF-7,decrease MCF-7 growth significantly
"NEAT1-Gapmer6: LNA-gapmer, SEQ ID NO: 4, CTCACACGTCCATCT; specific for the long isoform of NEAT1 (LNA gapmer, LNA positions and linkages not given here)",NEAT1 expression (knock-down),NEAT1 [4],efficiently knockdown NEAT1
same,NEAT1 isoforms inhibited,NEAT1 [4],specific for the long isoform
same,KD efficiency,"NEAT1 [4]; long transcript NEAT1_2, U2OS cells",about 50%
same,Nutlin-induced paraspeckles formation,MCF-7 cells,dramatically attenuated
same,formation of paraspeckles,BJ,decrease the formation of paraspeckles
same,MCF-7 growth (WST1-assay),MCF-7,decrease MCF-7 growth significantly
"NEAT1-Gapmer5: LNA-gapmer, SEQ ID NO: 3, TAAGCACTTTGGAAAG; inhibits both long and short isoform of NEAT1 (LNA gapmer, LNA positions and linkages not given here)",NEAT1 expression (knock-down),NEAT1 [4]; listed as gap 5,efficiently knockdown NEAT1; also recorded: robust decrease in NEAT1 expression
same,NEAT1 isoforms inhibited,NEAT1 [4],inhibit both the long and short isoform of NEAT1
same,paraspeckles formation,cancer cell lines [5],robust decrease
same,"apoptosis (caspase 3/7 glow assay, FACS analysis)",cancer cell lines [6],induction of apoptosis
same,MCF-7 growth (WST1-assay),MCF-7,decrease MCF-7 growth significantly
